# Laboratory results published in patent publication US11534457B2, “Use of dextran sulfate” (priority 2017, dated 2022).
# Tested on: severe traumatic brain injury (sTBI)
# Test: sTBI in rats, brain gene expression arrays and pathway analysis (Example 9)
# Format: in vivo, Male Wistar rats
# Parameters: key to z score, canonical pathway Dendritic Cell Maturation / z score, canonical pathway Adrenomedullin Signaling pathway / z score, canonical pathway Endothelin-1 Signaling / effect on canonical pathway Adrenomedullin Signaling pathway / effect on canonical pathway Endothelin-1 Signaling / effect on canonical pathway Dendritic Cell Maturation / Ingenuity canonical pathway Adrenomedullin signaling pathway, z score / Ingenuity canonical pathway FLT3 Signaling in Hematopoietic Progenitor Cells, z score / Ingenuity canonical pathway Opioid Signaling Pathway, z score / Ingenuity canonical pathway VDR/RXR Activation, z score / Ingenuity canonical pathway Neuropathic Pain Signaling In Dorsal Horn Neurons, z score / Ingenuity canonical pathway STAT3 Pathway, z score / Ingenuity canonical pathway IL-1 Signaling, z score / Ingenuity canonical pathway IL-6 Signaling, z score / Ingenuity canonical pathway NF-κB Signaling, z score / Ingenuity canonical pathway Role of NFAT in Cardiac Hypertrophy, z score / Ingenuity canonical pathway PPARα/RXRα Activation, z score: *: ambiguous effect
# Experimental: The experimental protocol used in this study was approved by the Ethical Committee of the Catholic University of Rome, according to international standards and guidelines for animal care. Male Wistar rats of 300-350 g body weight were fed with standard laboratory diet and water ad libitum in a controlled environment. As the anesthetic mixture, the animals received 35 mg/kg b.w. ketamine and 0.25 mg/kg body weight midazolam by i.p. injection. Severe traumatic brain injury (sTBI) was induced by dropping a 450 g weight from 2 m height on to the rat head that had been protected by a metal disk previously fixed on the skull, according to the “weight drop” impact acceleration model (Marmarou et al., A new model of diffuse brain injury in rats. Part I: Pathophysiology and biomechanics. J Neurosurg. 1994; 80: 291-300). […] At the end of each period of treatment, rats were anesthetized again and then immediately sacrificed.
# LMW-DS (Tikomed AB) was provided at a stock concentration of 20 mg/ml and was kept in a temperature-monitored refrigerator at 4° C. LMW-DS aliquots were diluted to the appropriate dosing concentration in sterile saline prior to delivery of a single subcutaneous injection.
# Three doses of LMW-DS were administered subcutaneously 30 minutes post-TBI. The animals were sacrificed at 2 days post-TBI. The animals were divided into the following subgroups:
# Three doses of LMW-DS were administered subcutaneously 30 minutes post-TBI. The animals were sacrificed at 7 days post-TBI. The animals were divided into the following subgroups:
# An in vivo craniectomy was performed on all animals during anesthesia. After carefully removing the rat's skull, the brain was exposed and removed with a surgical spatula and quickly dropped in RNALater and preserved at 4° C. for further processing.
# RNA extraction and array processing was carried out by SourceBioscience. The arrays used were the Agilent Rat expression arrays.
# Statistical analysis was carried out using the Metaboanalyst software package. Gene expression changes of 10% with a p<0.05 were regarded as significant.
# Pathway analysis of the differentially regulated genes was carried out using the Ingenuity pathway analysis package. The analysis was performed with special reference to pathways and molecular processes and diseases associated with neurodegenerative disease, including dementia, Alzheimer's disease, ALS, TBI and stroke, and with scarring and fibrosis, including glaucoma and normal pressure hydrocephalus (NPH) after subarachnoid haemorrhage.
# [1] = TBI + 5 mg/kg LMW-DS, after 7 days, TBI: Inhibited
# [2] = TBI + 15 mg/kg LMW-DS, 2 days after TBI
# [3] = TBI + 15 mg/kg LMW-DS, 7 days after TBI
# [4] = TBI + 15 mg/kg LMW-DS, 7 days after TBI, relative to control
# [5] = TBI + 15 mg/kg LMW-DS, after 7 days, TBI: Activated
# [6] = TBI + 15 mg/kg LMW-DS, after 7 days, TBI: Inhibited
# [7] = TBI + 15 mg/kg repeat dose LMW-DS, after 7 days, TBI: Activated
# [8] = TBI + 15 mg/kg repeat dose LMW-DS, after 7 days, TBI: Inhibited
substance,measurement,setting,value
low molecular weight dextran sulfate [LMW-DS],Diseases or functions annotation: Organization of cytoskeleton,[1],Activated
same,Diseases or functions annotation: Pelvic tumor,[1],Activated
same,Diseases or functions annotation: Proliferation of connective tissue cells,[1],Inhibited
same,Diseases or functions annotation: Proliferation of epithelial cells,[1],Inhibited
same,Diseases or functions annotation: Quantity of cells,[1],Activated
same,Diseases or functions annotation: Quantity of connective tissue,[1],Activated
same,Diseases or functions annotation: Secretion of molecule,[1],Activated
same,Diseases or functions annotation: Size of body,[1],Activated
same,Diseases or functions annotation: Solid tumor,[1],Activated
same,Diseases or functions annotation: Synthesis of lipid,[1],Activated
same,Diseases or functions annotation: Transcription,[1],Activated
same,Diseases or functions annotation: Transcription of RNA,[1],Activated
same,Diseases or functions annotation: Transport of molecule,[1],Activated
same,Diseases or functions annotation: Tumorigenesis of tissue,[1],Inhibited
same,Diseases or functions annotation: Vasculogenesis,[1],Activated
same,Diseases or functions annotation: Apoptosis,[2],Inhibited
same,Diseases or functions annotation: Apoptosis of tumor cell lines,[2],Activated
same,Diseases or functions annotation: Behavior,[2],Inhibited
same,Diseases or functions annotation: Cell death,[2],Inhibited
same,Diseases or functions annotation: Necrosis,[2],Inhibited
same,Diseases or functions annotation: Quantity of blood cells,[2],Inhibited
same,Diseases or functions annotation: Quantity of cells,[2],Inhibited
same,Diseases or functions annotation: Quantity of lymphocytes,[2],Inhibited
same,Ingenuity canonical pathway: Endothelin-1 Signaling,[3],Activated
same,Ingenuity canonical pathway: Phospholipase C Signaling,[3],Activated
same,Ingenuity canonical pathway: cAMP-mediated signaling,[3],Activated
same,z score: Abdominal neoplasm,[3],−0.272
same,z score: Apoptosis,[3],−0.256
same,z score: Apoptosis of tumor cell lines,[3],0.783
same,z score: Cancer,[3],1.705
same,z score: Carcinoma,[3],1.067
same,z score: Cell death,[3],−1.269
same,z score: Cell death of tumor cell lines,[3],0.178
same,z score: Cell movement of myeloid cells,[3],1.197
same,z score: Development of connective tissue cells,[3],0.766
same,z score: Development of malignant tumor,[3],−0.774
same,z score: Differentiation of bone cells,[3],0.903
same,z score: Epithelial neoplasm,[3],0.775
same,z score: Extracranial solid tumor,[3],1.474
same,z score: Frequency of tumor,[3],−1.519
same,z score: Genitourinary tumor,[3],1.746
same,z score: Incidence of tumor,[3],−0.865
same,z score: Leukocyte migration,[3],2.365
same,z score: Necrosis,[3],0.213
same,z score: Non-melanoma solid tumor,[3],1.121
same,z score: Quantity of Ca^2+,[3],0.224
same,z score: Quantity of cells,[3],0.991
same,z score: Solid tumor,[3],0.992
same,z score: Transcription,[3],0.747
same,z score: Transcription of RNA,[3],0.517
same,z score: Tumorigenesis of epithelial neoplasm,[3],0.152
same,z score: Tumorigenesis of tissue,[3],0.918
same,"Ingenuity canonical pathway Adrenomedullin signaling pathway, z score",[4],*
same,"Ingenuity canonical pathway Endothelin-1 Signaling, z score",[4],1
same,"Ingenuity canonical pathway Phospholipase C Signaling, z score",[4],2
same,"Ingenuity canonical pathway cAMP-mediated signaling, z score",[4],1
same,Diseases or functions annotation: Apoptosis,[5],Inhibited
same,Diseases or functions annotation: Apoptosis of tumor cell lines,[5],Activated
same,Diseases or functions annotation: Cell death,[5],Inhibited
same,Diseases or functions annotation: Cell death of tumor cell lines,[5],Activated
same,Diseases or functions annotation: Development of malignant tumor,[5],Inhibited
same,Diseases or functions annotation: Extracranial solid tumor,[5],Activated
same,Diseases or functions annotation: Frequency of tumor,[5],Inhibited
same,Diseases or functions annotation: Incidence of tumor,[5],Inhibited
same,Diseases or functions annotation: Necrosis,[5],Activated
same,Diseases or functions annotation: Abdominal neoplasm,[6],Inhibited
same,Diseases or functions annotation: Cancer,[6],Activated
same,Diseases or functions annotation: Carcinoma,[6],Activated
same,Diseases or functions annotation: Cell movement of myeloid cells,[6],Activated
same,Diseases or functions annotation: Development of carcinoma,[6],Activated
same,Diseases or functions annotation: Development of connective tissue cells,[6],Activated
same,Diseases or functions annotation: Differentiation of bone cells,[6],Activated
same,Diseases or functions annotation: Epithelial neoplasm,[6],Activated
same,Diseases or functions annotation: Genitourinary tumor,[6],Activated
same,Diseases or functions annotation: Leukocyte migration,[6],Activated
same,Diseases or functions annotation: Non-melanoma solid tumor,[6],Activated
same,Diseases or functions annotation: Quantity of cells,[6],Activated
same,Diseases or functions annotation: Solid tumor,[6],Activated
same,Diseases or functions annotation: Transcription,[6],Activated
same,Diseases or functions annotation: Transcription of RNA,[6],Activated
same,Diseases or functions annotation: Tumorigenesis of epithelial neoplasm,[6],Activated
same,Diseases or functions annotation: Tumorigenesis of tissue,[6],Activated
same,Diseases or functions annotation: Digestive organ tumor,[7],Inhibited
same,Diseases or functions annotation: Extracranial solid tumor,[7],Activated
same,Diseases or functions annotation: Gastrointestinal tumor,[7],Inhibited
same,Diseases or functions annotation: Hematologic cancer,[7],Inhibited
same,Diseases or functions annotation: Hematopoietic neoplasm,[7],Inhibited
same,Diseases or functions annotation: Obesity,[7],Activated
same,Diseases or functions annotation: Seizure disorder,[7],Activated
same,Diseases or functions annotation: Skin lesion,[7],Activated
same,Diseases or functions annotation: Abdominal cancer,[8],Inhibited
same,Diseases or functions annotation: Abdominal neoplasm,[8],Inhibited
same,Diseases or functions annotation: Adenocarcinoma,[8],Inhibited
same,Diseases or functions annotation: Branching of cells,[8],Activated
same,Diseases or functions annotation: Carcinoma,[8],Inhibited
same,Diseases or functions annotation: Cell movement,[8],Activated
same,Diseases or functions annotation: Cell-cell contact,[8],Activated
same,Diseases or functions annotation: Concentration of hormone,[8],Activated
same,Diseases or functions annotation: Concentration of lipid,[8],Inhibited
same,Diseases or functions annotation: Dendritic growth/branching,[8],Inhibited
same,Diseases or functions annotation: Development of connective tissue cells,[8],Inhibited
same,Diseases or functions annotation: Development of gap junctions,[8],Activated
same,Diseases or functions annotation: Development of neurons,[8],Activated
same,Diseases or functions annotation: Developmental process of synapse,[8],Activated
